≈ marks a conversion by molar mass, not a printed value.
Tests used:
Type in all cases: functional
Pseudomonas aeruginosa [1] = experiment: Antibacterial activity against Pseudomonas aeruginosa ATCC 27853 by broth microdilution method
Klebsiella pneumoniae = experiment: Antibacterial activity against Klebsiella pneumonia by broth microdilution method
Escherichia coli [2] = experiment: Antibacterial activity against Escherichia coli ATCC 25922 by broth microdilution method
Pseudomonas aeruginosa [3] = experiment: Antibacterial activity against Pseudomonas aeruginosa by broth microdilution method
Enterococcus faecalis = experiment: Antibacterial activity against Enterococcus faecalis by broth microdilution method
Staphylococcus aureus [4] = experiment: Antibacterial activity against Staphylococcus aureus ATCC 25923 by broth microdilution method
Escherichia coli [5] = experiment: Antibacterial activity against Escherichia coli by broth microdilution method
Staphylococcus aureus [6] = experiment: Antibacterial activity against methicillin resistant Staphylococcus aureus by broth microdilution method
Staphylococcus aureus [7] = experiment: Antibacterial activity against Staphylococcus aureus ATCC 29213 by broth microdilution method
Acinetobacter baumannii = experiment: Antibacterial activity against Acinetobacter baumannii by broth microdilution method
Staphylococcus aureus [8] = experiment: Antibacterial activity against Staphylococcus aureus by broth microdilution method

SMILES	MIC (Pseudomonas aeruginosa [1])	MIC (Klebsiella pneumoniae)	MIC (Escherichia coli [2])	MIC (Pseudomonas aeruginosa [3])	MIC (Enterococcus faecalis)	MIC (Staphylococcus aureus [4])	MIC (Escherichia coli [5])	MIC (Staphylococcus aureus [6])	MIC (Staphylococcus aureus [7])	MIC (Acinetobacter baumannii)	MIC (Staphylococcus aureus [8])
O=C(/C=C1\C(=O)N(CCn2cncn2)c2ccccc21)c1ccccc1	128 µg/mL (≈ 372 µM)	64 µg/mL (≈ 186 µM)	8 µg/mL (≈ 23.2 µM)	32 µg/mL (≈ 92.9 µM)	128 µg/mL (≈ 372 µM)	128 µg/mL (≈ 372 µM)	64 µg/mL (≈ 186 µM)	256 µg/mL (≈ 743 µM)	128 µg/mL (≈ 372 µM)	128 µg/mL (≈ 372 µM)	128 µg/mL (≈ 372 µM)
CCCc1nccn1CCN1C(=O)C(=O)c2ccccc21	256 µg/mL (≈ 904 µM)	128 µg/mL (≈ 452 µM)	64 µg/mL (≈ 226 µM)	128 µg/mL (≈ 452 µM)	128 µg/mL (≈ 452 µM)	256 µg/mL (≈ 904 µM)	64 µg/mL (≈ 226 µM)	128 µg/mL (≈ 452 µM)	16 µg/mL (≈ 56.5 µM)	32 µg/mL (≈ 113 µM)	64 µg/mL (≈ 226 µM)
O=C1C(=O)N(CCn2nnc3ccccc32)c2ccccc21	256 µg/mL (≈ 876 µM)	256 µg/mL (≈ 876 µM)	128 µg/mL (≈ 438 µM)	256 µg/mL (≈ 876 µM)	512 µg/mL (≈ 1750 µM)	256 µg/mL (≈ 876 µM)	128 µg/mL (≈ 438 µM)	128 µg/mL (≈ 438 µM)	256 µg/mL (≈ 876 µM)	128 µg/mL (≈ 438 µM)	256 µg/mL (≈ 876 µM)
O=C(/C=C1\C(=O)N(CCn2cncn2)c2ccccc21)c1ccc(Cl)cc1	512 µg/mL (≈ 1350 µM)	128 µg/mL (≈ 338 µM)	64 µg/mL (≈ 169 µM)	512 µg/mL (≈ 1350 µM)	32 µg/mL (≈ 84.5 µM)	128 µg/mL (≈ 338 µM)	512 µg/mL (≈ 1350 µM)	32 µg/mL (≈ 84.5 µM)	64 µg/mL (≈ 169 µM)	> 512 µg/mL	512 µg/mL (≈ 1350 µM)
O=C1C(O)c2ccccc2N1CCn1cncn1 (stereo not given)	128 µg/mL (≈ 524 µM)	128 µg/mL (≈ 524 µM)	256 µg/mL (≈ 1050 µM)	256 µg/mL (≈ 1050 µM)	128 µg/mL (≈ 524 µM)	64 µg/mL (≈ 262 µM)	128 µg/mL (≈ 524 µM)	128 µg/mL (≈ 524 µM)	64 µg/mL (≈ 262 µM)	64 µg/mL (≈ 262 µM)	128 µg/mL (≈ 524 µM)
Cc1ccc(C(=O)CC2(O)C(=O)N(CCn3cncn3)c3ccccc32)cc1 (stereo not given)	256 µg/mL (≈ 680 µM)	256 µg/mL (≈ 680 µM)	512 µg/mL (≈ 1360 µM)	512 µg/mL (≈ 1360 µM)	128 µg/mL (≈ 340 µM)	256 µg/mL (≈ 680 µM)	128 µg/mL (≈ 340 µM)	256 µg/mL (≈ 680 µM)	128 µg/mL (≈ 340 µM)	128 µg/mL (≈ 340 µM)	256 µg/mL (≈ 680 µM)
O=C1C(=O)N(CCn2ccnn2)c2ccccc21	128 µg/mL (≈ 528 µM)	256 µg/mL (≈ 1060 µM)	128 µg/mL (≈ 528 µM)	128 µg/mL (≈ 528 µM)	128 µg/mL (≈ 528 µM)	256 µg/mL (≈ 1060 µM)	256 µg/mL (≈ 1060 µM)	256 µg/mL (≈ 1060 µM)	256 µg/mL (≈ 1060 µM)	32 µg/mL (≈ 132 µM)	32 µg/mL (≈ 132 µM)
O=C1C(=O)N(CCn2cnc3ccccc32)c2ccccc21	256 µg/mL (≈ 879 µM)	128 µg/mL (≈ 439 µM)	256 µg/mL (≈ 879 µM)	512 µg/mL (≈ 1760 µM)	256 µg/mL (≈ 879 µM)	256 µg/mL (≈ 879 µM)	256 µg/mL (≈ 879 µM)	256 µg/mL (≈ 879 µM)	256 µg/mL (≈ 879 µM)	128 µg/mL (≈ 439 µM)	64 µg/mL (≈ 220 µM)
CC(=O)CC1(O)C(=O)N(CCn2cncn2)c2ccccc21 (stereo not given)	256 µg/mL (≈ 852 µM)	256 µg/mL (≈ 852 µM)	512 µg/mL (≈ 1700 µM)	256 µg/mL (≈ 852 µM)	256 µg/mL (≈ 852 µM)	256 µg/mL (≈ 852 µM)	256 µg/mL (≈ 852 µM)	256 µg/mL (≈ 852 µM)	256 µg/mL (≈ 852 µM)	256 µg/mL (≈ 852 µM)	256 µg/mL (≈ 852 µM)
O=C1C(=O)N(CCn2cncn2)c2ccccc21	64 µg/mL (≈ 264 µM)	128 µg/mL (≈ 528 µM)	8 µg/mL (≈ 33 µM)	128 µg/mL (≈ 528 µM)	128 µg/mL (≈ 528 µM)	128 µg/mL (≈ 528 µM)	32 µg/mL (≈ 132 µM)	256 µg/mL (≈ 1060 µM)	32 µg/mL (≈ 132 µM)	128 µg/mL (≈ 528 µM)	128 µg/mL (≈ 528 µM)
O=C(CC1(O)C(=O)N(CCn2cncn2)c2ccccc21)c1ccc(O)cc1 (stereo not given)	256 µg/mL (≈ 677 µM)	256 µg/mL (≈ 677 µM)	256 µg/mL (≈ 677 µM)	256 µg/mL (≈ 677 µM)	256 µg/mL (≈ 677 µM)	256 µg/mL (≈ 677 µM)	256 µg/mL (≈ 677 µM)	256 µg/mL (≈ 677 µM)	256 µg/mL (≈ 677 µM)	512 µg/mL (≈ 1350 µM)	256 µg/mL (≈ 677 µM)
O=C(/C=C1\C(=O)N(CCn2cncn2)c2ccccc21)c1ccc(O)cc1	256 µg/mL (≈ 710 µM)	256 µg/mL (≈ 710 µM)	256 µg/mL (≈ 710 µM)	256 µg/mL (≈ 710 µM)	128 µg/mL (≈ 355 µM)	128 µg/mL (≈ 355 µM)	128 µg/mL (≈ 355 µM)	256 µg/mL (≈ 710 µM)	32 µg/mL (≈ 88.8 µM)	64 µg/mL (≈ 178 µM)	128 µg/mL (≈ 355 µM)
O=C1C(=O)N(CCn2cnc([N+](=O)[O-])c2)c2ccccc21	256 µg/mL (≈ 894 µM)	64 µg/mL (≈ 224 µM)	64 µg/mL (≈ 224 µM)	64 µg/mL (≈ 224 µM)	128 µg/mL (≈ 447 µM)	64 µg/mL (≈ 224 µM)	128 µg/mL (≈ 447 µM)	256 µg/mL (≈ 894 µM)	32 µg/mL (≈ 112 µM)	32 µg/mL (≈ 112 µM)	128 µg/mL (≈ 447 µM)
Cc1ccc(C(=O)/C=C2\C(=O)N(CCn3cncn3)c3ccccc32)cc1	512 µg/mL (≈ 1430 µM)	256 µg/mL (≈ 714 µM)	256 µg/mL (≈ 714 µM)	128 µg/mL (≈ 357 µM)	256 µg/mL (≈ 714 µM)	8 µg/mL (≈ 22.3 µM)	64 µg/mL (≈ 179 µM)	128 µg/mL (≈ 357 µM)	256 µg/mL (≈ 714 µM)	32 µg/mL (≈ 89.3 µM)	64 µg/mL (≈ 179 µM)
Cc1ncc([N+](=O)[O-])n1CCN1C(=O)C(=O)c2ccccc21	256 µg/mL (≈ 853 µM)	64 µg/mL (≈ 213 µM)	128 µg/mL (≈ 426 µM)	64 µg/mL (≈ 213 µM)	128 µg/mL (≈ 426 µM)	256 µg/mL (≈ 853 µM)	128 µg/mL (≈ 426 µM)	128 µg/mL (≈ 426 µM)	128 µg/mL (≈ 426 µM)	128 µg/mL (≈ 426 µM)	128 µg/mL (≈ 426 µM)
